Test results published in patent US11648248B1 (King Abdulaziz University, priority 2022, dated 2023).
≈ marks a conversion by molar mass, not a printed value. Like-named read-outs stand apart in the source and are kept apart here.

How the values were obtained:
Test in all cases: MIC broth microdilution, initial screening
Type in all cases: cell-based
C. albicans (ATCC 64124) = settings: Candida albicans, read-out: minimum inhibitory concentration (MIC) C. albicans (ATCC 64124)
Experimental: (§1) The minimum inhibitory concentrations (MICs) of the tested compounds and control drugs (linezolid, vancomycin, gentamicin (antibiotics) and fluconazole and 5-fluorocytosine (5-FC) (antifungal drugs)) were determined using the broth microdilution method, according to guidelines outlined by the Clinical and Laboratory Standards Institute (CLSI, Clinical and Laboratory Standards Institute, Methods for antimicrobial susceptibility testing of anaerobic bacteria; approved standard, M11-A8. 8th ed., 2012; CLSI, Clinical and Laboratory Standards Institute. M27-A3 Reference Method for Broth Dilution Antifungal Susceptibility Testing of Yeasts; Approved Standard—Third Edition, Wayne, Pa., 2008) against clinically-relevant bacterial (methicillin-resistant Staphylococcus aureus (MRSA), Escherichia coli, and C. difficile strains) and fungal (Candida albicans) strains. S. aureus and E. coli were grown aerobically overnight on tryptone soy agar plates at 37° C. C. difficile was grown anaerobically on brain heart infusion supplemented agar at 37° C. for 48 hours. C. albicans was grown aerobically overnight on yeast peptone dextrose (YPD) agar plate at 35° C. Afterwards, a bacterial solution equivalent to 0.5 McFarland standard was prepared and diluted in cation-adjusted Mueller-Hinton broth (CAMHB) (for S. aureus and E. coli) to achieve a bacterial concentration of about 5×10^5 CFU/mL. C. difficile was diluted in brain heart infusion supplemented broth, supplemented with yeast extract, hemin and vitamin K to achieve a bacterial concentration of about 5×10^5 CFU/mL. C. albicans was diluted in Roswell Park Memorial Institute (RPMI 1640) medium with glutamine and without bicarbonate (GIBCO by Life Technologies, Green Island, N.Y., USA) which was buffered to pH 7.0 with 0.165 M of [3-(N-morpholino) propanesulfonic acid] (MOPS) (DOT Scientific Inc., Burton, Mich., USA) to achieve a fungal concentration of about 1.5×10^3 CFU/mL. Compounds and control drugs were added in the first row of the 96-well plates and serially diluted with the corresponding media containing bacteria. Plates were then incubated aerobically at 37° C. for 18-20 hours (for S. aureus and E. coli). C. difficile was incubated anaerobically at 37° C. for 48 hours. C. albicans was incubated aerobically at 37° C. for 24 hours.
(§2) The minimum inhibitory concentrations (MICs) of the tested compounds and control drugs; linezolid, vancomycin, gentamicin (antibiotics) and fluconazole and 5-fluorocytosine (5-FC) (antifungal drugs) were determined using the broth microdilution method, according to guidelines outlined by the Clinical and Laboratory Standards Institute (CLSI)^1, 2, 3 against clinically-relevant bacterial (methicillin-resistant Staphylococcus aureus (MRSA), Escherichia coli and Clostridium difficile strains) and fungal (Candida albicans) strain. S. aureus and E. coli were grown aerobically overnight on tryptone soy agar plates at 37° C. C. difficile was grown anaerobically on brain heart infusion supplemented agar at 37° C. for 48 hours. C. albicans was grown aerobically overnight on yeast peptone dextrose (YPD) agar plate at 35° C. Afterwards, a bacterial solution equivalent to 0.5 McFarland standard was prepared and diluted in cation-adjusted Mueller-Hinton broth (CAMHB) (for S. aureus and E. coli) to achieve a bacterial concentration of about 5×10^5 CFU/mL. C. difficile was diluted in brain heart infusion supplemented broth, supplemented with yeast extract, hemin and vitamin K to achieve a bacterial concentration of about 5×10^5 CFU/mL. C. albicans was diluted in Roswell Park Memorial Institute (RPMI 1640) medium with glutamine and without bicarbonate (GIBCO by Life Technologies, Green Island, N.Y., USA) which was buffered to pH 7.0 with 0.165 M of [3-(N-morpholino) propanesulfonic acid]

[1] = tested on: Methicillin-resistant Staphylococcus aureus NRS384 (MRSA USA300)
Experimental: as §1, §2

[2] = tested on: Clostridium difficile (ATCC-BAA1870); settings: anaerobic, 48 hours; for MIC: Clostridioides difficile, ATCCBAA1870, 48 h, read-out: minimum inhibitory concentration (MIC) C. difficile (ATCC-BAA1870)
Experimental: as §1, §2

[3] = tested on: Escherichia coli BW25113 (wild-type); settings: for MIC: Escherichia coli, E. coli BW25113, 18-20 hours, read-out: minimum inhibitory concentration (MIC) E. coli (Wild-type)
Experimental: as §1, §2

[4] = tested on: Escherichia coli JW55031 (TolC mutant); settings: for MIC: Escherichia coli, read-out: minimum inhibitory concentration (MIC) E. coli (TolC mutant), E. coli JW55031, 18-20 hours
Experimental: as §1, §2

[5] = read-out: minimum inhibitory concentration (MIC) S. aureus (MRSA USA300), MRSA NRS384 (USA300), broth microdilution, 18-20 hours

Compound	MIC (C. albicans (ATCC 64124); ATCC64124, RPMI 1640, 24 hours)	MIC (C. albicans (ATCC 64124); ATCC64124, 24 h)	MIC [1, 5]	MIC [2]	MIC [3]	MIC [4]	minimum inhibitory concentration (MIC) E. coli (Wild-type) ([3]; 18-20 hours)	minimum inhibitory concentration (MIC) E. coli (TolC mutant) ([4]; E. coli JW55031, 18-20 hours)	MIC ([1]; MRSA|NRS384|USA300, read-out: minimum inhibitory concentration (MIC) S. aureus (MRSA USA300), MRSA NRS384 (USA300), broth microdilution, 18-20 hours)	minimum inhibitory concentration (MIC) C. difficile (ATCC-BAA1870) [2]
OC(Cn1cncn1)(Cn1cncn1)c1ccc(F)cc1F [Fluconazole, reference compound]	> 128 µg/mL	–	–	–	–	–	–	–	–	–
O=C(Nc1cccc(Nc2ccc(=O)[nH]n2)c1)Nc1ccc(Cl)c(C(F)(F)F)c1 [MY50, 1-(4-chloro-3-(trifluoromethyl)phenyl)-3-(3-((6-oxo-1,6-dihydropyridazin-3-yl)amino)phenyl)urea]	–	> 128 µg/mL	> 128 µg/mL	> 128 µg/mL	> 128 µg/mL	128 µg/mL (≈ 302 µM)	–	–	–	–
Cc1cccc(NC(=O)Nc2ccc(Oc3ccc(=O)[nH]n3)cc2)c1 [MY32, 1-(4-((6-oxo-1,6-dihydropyridazin-3-yl)oxy)phenyl)-3-(m-tolyl)urea]	–	> 128 µg/mL	> 128 µg/mL	> 128 µg/mL	> 128 µg/mL	> 128 µg/mL	–	–	–	–
Gentamicin [reference compound]	–	–	–	–	–	–	0.5 µg/mL	0.25 µg/mL	–	–
COc1ccc(NC(=O)Nc2cccc(-c3ccc(=O)[nH]n3)c2)cc1 [MY33, 1-(4-methoxyphenyl)-3-(3-(6-oxo-1,6-dihydropyridazin-3-yl)phenyl)urea]	–	> 128 µg/mL	> 128 µg/mL	> 128 µg/mL	> 128 µg/mL	> 128 µg/mL	–	–	–	–
Cc1cc(Cl)ccc1NC(=O)Nc1ccc(-c2ccc(=O)[nH]n2)cc1	–	> 128 µg/mL	–	–	> 128 µg/mL	64 µg/mL (≈ 180 µM)	–	–	> 128 µg/mL	64 µg/mL (≈ 180 µM)
Nc1nc(=O)[nH]cc1F [5-Fluorocytosine, 5-fluorocytosine, reference compound]	0.25 µg/mL (≈ 1.94 µM)	–	–	–	–	–	–	–	–	–
O=C(Nc1cccc(Nc2ccc(=O)[nH]n2)c1)Nc1ccc(Cl)c(Cl)c1 [MY49, 1-(3,4-dichlorophenyl)-3-(3-((6-oxo-1,6-dihydropyridazin-3-yl)amino)phenyl)urea]	–	> 128 µg/mL	> 128 µg/mL	> 128 µg/mL	> 128 µg/mL	> 128 µg/mL	–	–	–	–
